Common to all, as to assay type: cell-based
For experiment [1], the target named is T1, MRGPRX2 (Homo sapiens, UniProt Q96LB1).
T1 sequence (Q96LB1 1-330): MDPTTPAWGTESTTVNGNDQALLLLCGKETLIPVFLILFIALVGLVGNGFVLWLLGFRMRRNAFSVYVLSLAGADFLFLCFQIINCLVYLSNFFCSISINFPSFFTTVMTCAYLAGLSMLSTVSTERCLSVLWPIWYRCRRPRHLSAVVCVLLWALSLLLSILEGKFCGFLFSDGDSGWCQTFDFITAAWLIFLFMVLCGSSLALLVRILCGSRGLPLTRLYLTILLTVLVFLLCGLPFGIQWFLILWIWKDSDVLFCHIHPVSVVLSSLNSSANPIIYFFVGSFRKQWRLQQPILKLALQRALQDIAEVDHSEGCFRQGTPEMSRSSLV
Put plainly: MRGPRX2 β-Arrestin Assay. Particulars: PathHunter CHO-K1 MRGPRX2 β-Arrestin cell line; agonist Cortistatin 14 0.25 μM. Also noted: host or cells: PathHunter CHO-K1. An excerpt:
Example C: MRGPRX2 β-Arrestin Assay
This assay measures compound inhibition of β-Arrestin recruitment, which is part of the G protein-independent pathway that results from the ligand-activated GPCR phosphorylation by specific GPCR kinases. The PathHunter CHO-K1 MRPGRX2 B-Arrestin Cell line stably expressing ProLink tagged MRGPRX2 and Enzyme Acceptor Tagged B-Arrestin was purchased from Eurofins DiscoverX, (Fremont, CA).
The cells were maintained in culture medium from the Europhins DiscoverX Cell Culture Kit-107 which includes FBS, hygromycin B and G418. For the assay, the cells were harvested and were resuspended with Cell Plating Reagent 2 (Eurofins DiscoverX). Cells were added 10000 cells in 25 μL/well to a 384-well black cell culture plate (Greiner VWR, Radnor, PA) which contained 125 nL/well of compound at a selected serially diluted concentration range or DMSO. The plate was incubated at 37° C. with 5% CO2 for 1 h. 2 μL/well of agonist Cortistatin 14 was diluted in Protein Dilution Buffer, (Eurofins DiscoverX) for a final concentration of 0.25 μM, was added and the plate was incubated at 37° C. with 5% CO2 for 90 min. 14 μL/well of Detection Reagent Mix (PathHunter Detection Kit, Eurofins DiscoverX) was added to the plates and further incubated for 1 h in the dark. Plates were read on the PHERAstar microplate reader (BMG Labtech Cary, NC) measuring luminescence 0.1 to 1 s per well. Data was normalized using DMSO only wells and wells with high concentration of reference antagonist as controls. Compound IC50 curves were globally fitted with 3- or 4-parameter Hill equation in a Genedata Screener (Genedata Basel, Switzerland).

Experiment [2] addresses T1, MRGPRX2. Put plainly: MRGPRX2 IP1 HTRF Assay. Particulars: CHO-K1 cells stably expressing human MRGPRX2; IP1 accumulation; agonist Cortistatin 14 1 μM. Also noted: host or cells: CHO-K1. An excerpt: Example B: MRGPRX2 IP1 HTRF Assay
This assay measures compound inhibition of myo-Inositol 1 phosphate (IP1) accumulation in CHO-K1 cells. Chinese hamster ovary (CHO-K1) cells stably expressing human MRGPRX2 were purchased from GenScript (Piscataway, NJ).
For the HTRF IP1 determination, an IP-One GqKit (Perkin Elmer Cisbio, Waltham, MA), which includes all reagents and buffers in this protocol, was used. The cells were maintained in culture medium (Ham's F-12K) containing 10% (v/v) FBS, and 200 μg/mL Zeocin. For the assay, the cells were harvested and resuspended in culture medium with 2% FBS and without Zeocin, then were passed through a 40 μm filter. Cells were added at 20000 cells in a 5 μL/well to a 384-well white small volume cell culture plate (Greiner VWR, Radnor, PA) which contained 50 nL/well of test compound serially diluted at a selected concentration range in DMSO. 5 μL/well of prepared 2× Stimulation Buffer2 was then added to plates and was incubated at 37° C. with 5% CO2 for 1 h. 5 μL/well of agonist Cortistatin 14 (Bio-TechneR&D Systems, Minneapolis, MN) in 1× Stimulation Buffer 2, for a 1 μM final concentration, was then added to plates and incubated at 37° C. with 5% CO2 for 1 h. 6 μL/well of 1:20 diluted Detection Reagent Mix (d2 and Cryptate) was added to the plates and incubated for 1 h in the dark. Plates were read on the PHERAstar microplate reader (BMG Labtech Cary, NC) to determine the HTRF ratio of the acceptor and donor emission signals. The IP1 concentrations were calculated from a standard curve following the IP-One GQ kit instructions. Wells with DMSO only and wells with high concentration of reference antagonist were used as controls for normalization. Compound IC50 curves were globally fitted with 3- or 4-parameter Hill equation in a Genedata Screener (Genedata Basel, Switzerland).

Experiment [3] has as its target T1, MRGPRX2. Put plainly: MRGPRX2 FLIPR Calcium Mobilization Assay. Particulars: CHO-K1 cells stably expressing human MRGPRX2; Ca2+ release; agonist Cortistatin-14 at EC80. Set-up: host or cells: CHO-K1. As to the method: Example A. MRGPRX2 FLIPR Calcium Mobilization Assay
Chinese hamster ovary (CHO-K1) cells stably expressing human MRGPRX2 were purchased from Genescript (Piscataway, NJ). The cells were maintained in culture medium (Ham's F-12K) containing 10% (v/v) FBS, 200 μg/mL Zeocin, 100 units/mL penicillin G and 100 μg/mL streptomycin (Life Technologies, Carlsbad, CA). For the assay, the cells were harvested and resuspended with culture medium without Zeocin before plating at 8000 cells per well in 20 μL in 384-well black clear bottom cell culture plates (VWR, Radnor, PA). After 24 hour culture at 37° C. and 5% CO2, the cells were loaded with 20 μL/well of calcium dye (FLIPR Calcium 6 Assay Kit, Molecular Devices, San Jose, CA) diluted in loading buffer (1× Hank's Balanced Salt Solution (HBSS), 5 mM probenecid, 20 mM 4-(2-hydroxyethyl)-1-piperazineethanesulfonic acid (HEPES), pH 7.4, VWR, Radnor, PA) followed with 45 min incubation at 37° C. and 40 min. at r.t. in the dark. Cells were then treated with the addition of 10 uL/well test compounds with a range of increasing concentrations diluted in the assay buffer (1×HBSS, 20 mM HEPES, pH 7.4, VWR, Radnor, PA) with FLIPR Penta (Molecular Devices. San Jose, CA) and incubated for 30 min. at r.t. Ca^2+ release was measured with FLIPR Penta with 10 s basal fluorescence measurement, then 12.5 μL of 5× agonist Cortistatin-14 (Tocris, Minneapolis, MN) at final concentration corresponding to the EC80 were added followed with continued fluorescence signal monitoring for an additional 110 s. The base line adjusted (median of first 10s base line) max value of the Relative Fluorescence Unit (RFU) was plotted against compound concentrations. Wells with no compound were served as the positive controls, and wells with high concentration of reference antagonist were used as negative controls. IC50 curves were globally fitted with 3- or 4-parameter Hill equation in a Genedata Screener (Genedata Basel, Switzerland).

Consider eleven molecules from US20250206734A1, “BICYCLIC HETEROCYCLES AS MRGPRX2 ANTAGONISTS” (Incyte Corporation, priority 2023, published 2025).

Molecules are shown by their SMILES.

The term IC50 denotes the concentration that inhibits the measured activity by half.

For the molecule `CC(c1cc2ncc(Oc3ccc(F)cc3F)cc2cn1)N1CCC(F)(F)CC1` (centres unmarked) [Example 1, 3-(2,4-Difluorophenoxy)-7-(1-(4,4-difluoropiperidin-1-yl)ethyl)-1,6-naphthyridine], the results for the IC50 on MRGPRX2 [1], on MRGPRX2 [2] and on MRGPRX2 [3] were 0.1 to 1 µM, 0.1 to 1 µM and 0.0001 to 0.1 µM, respectively.
For the molecule `CC(c1cc2ncc(Oc3ccc(F)cc3F)cc2cn1)N1CCCC(F)(F)C1` (centres unmarked) [Example 2, 3-(2,4-Difluorophenoxy)-7-(1-(3,3-difluoropiperidin-1-yl)ethyl)-1,6-naphthyridine], the concentration for half-maximal inhibition (IC50) at MRGPRX2 [2] is 0.1 to 1 µM; on MRGPRX2 [3] it was 0.0001 to 0.1 µM.
As for `CC(c1cc2ncc(Oc3ccc(F)cc3F)cc2cn1)N1CCCC1c1ccccc1` (centres unmarked) [Example 3, 3-(2,4-Difluorophenoxy)-7-(1-(2-phenylpyrrolidin-1-yl)ethyl)-1,6-naphthyridine], the half-maximal inhibitory concentration (IC50) on MRGPRX2 [1], on MRGPRX2 [2] and at MRGPRX2 [3] was 0.0001 to 0.1 µM each time.
For `CC(c1cc2ncc(Oc3ccc(F)cc3F)cc2cn1)N1CCC(F)(F)C(c2ccc(=O)[nH]c2)C1` (centres unmarked) [Example 4, 5-(1-(1-(3-(2,4-Difluorophenoxy)-1,6-naphthyridin-7-yl)ethyl)-4,4-difluoropiperidin-3-yl)pyridin-2(1H)-one], the IC50 on MRGPRX2 [1], on MRGPRX2 [2] and on MRGPRX2 [3] was 0.0001 to 0.1 µM in each case.
On to `Fc1ccc(Oc2cnc3cc(C(N4CCCCC4)C(F)(F)F)ncc3c2)c(F)c1` (centres unmarked) [Example 5, 3-(2,4-Difluorophenoxy)-7-(2,2,2-trifluoro-1-(piperidin-1-yl)ethyl)-1,6-naphthyridine], for which the figures for the IC50 at MRGPRX2 [1], on MRGPRX2 [2] and on MRGPRX2 [3] were 0.0001 to 0.1 µM, 0.1 to 1 µM and 0.0001 to 0.1 µM, respectively.
For the molecule `Fc1ccc(Oc2cnc3cc(C(N4CCC(F)(F)CC4)C(F)(F)F)ncc3c2)c(F)c1` (centres unmarked) [Example 6, 3-(2,4-Difluorophenoxy)-7-(1-(4,4-difluoropiperidin-1-yl)-2,2,2-trifluoroethyl)-1,6-naphthyridine], the concentration for half-maximal inhibition (IC50) at MRGPRX2 [1], on MRGPRX2 [2] and at MRGPRX2 [3] was 0.0001 to 0.1 µM in each case.
As for `Fc1ccc(Oc2cnc3cc(C(N4CCCC4c4ccccc4)C(F)(F)F)ncc3c2)c(F)c1` (centres unmarked) [Example 7, 3-(2,4-Difluorophenoxy)-7-(2,2,2-trifluoro-1-(2-phenylpyrrolidin-1-yl)ethyl)-1,6-naphthyridine], the concentration for half-maximal inhibition (IC50) on MRGPRX2 [1], on MRGPRX2 [2] and on MRGPRX2 [3] was 0.0001 to 0.1 µM throughout.
Consider `Fc1ccc(Oc2cnc3cc(C(N4CCCC4c4ccncc4)C(F)(F)F)ncc3c2)c(F)c1` (centres unmarked) [Example 12, 3-(2,4-Difluorophenoxy)-7-(2,2,2-trifluoro-1-(2-(pyridin-4-yl)pyrrolidin-1-yl)ethyl)-1,6-naphthyridine], for which the IC50 on MRGPRX2 [1], on MRGPRX2 [2] and on MRGPRX2 [3] was 0.0001 to 0.1 µM in each case.
Turning to `NC(=O)[C@@H]1CCCN1C(c1cc2ncc(Oc3ccc(F)cc3F)cc2cn1)C(F)(F)F` (stereo partly drawn) [Example 14, (2S)-1-(1-(3-(2,4-Difluorophenoxy)-1,6-naphthyridin-7-yl)-2,2,2-trifluoroethyl)pyrrolidine-2-carboxamide], the IC50 at MRGPRX2 [1], at MRGPRX2 [2] and at MRGPRX2 [3] was 0.0001 to 0.1 µM throughout.
In the case of `COc1ccc(C2CCCN2C(c2cc3ncc(Oc4ccc(F)cc4F)cc3cn2)C(F)(F)F)cc1` (centres unmarked) [Example 15, 3-(2,4-Difluorophenoxy)-7-(2,2,2-trifluoro-1-(2-(4-methoxyphenyl)pyrrolidin-1-yl)ethyl)-1,6-naphthyridine], the half-inhibitory concentration (IC50) on MRGPRX2 [1], on MRGPRX2 [2] and on MRGPRX2 [3] was 0.0001 to 0.1 µM in each case.
Regarding `O=c1ccc(C2CCCN(C(c3cc4ncc(Oc5ccc(F)cc5F)cc4cn3)C(F)(F)F)C2)cn1CC(F)(F)F` (centres unmarked) [Example 16, 5-(1-(1-(3-(2,4-Difluorophenoxy)-1,6-naphthyridin-7-yl)-2,2,2-trifluoroethyl)piperidin-3-yl)-1-(2,2,2-trifluoroethyl)pyridin-2(1H)-one], the half-maximal inhibitory concentration (IC50) at MRGPRX2 [1], at MRGPRX2 [2] and at MRGPRX2 [3] was 0.0001 to 0.1 µM each time.
